Patent publication US20090233917A1, “Stroke recovery” (priority 2006, published 2009)

Assays:
MCA occlusion in rats [1] = test: Functional recovery following MCA occlusion in rats, therapeutic window / time course (Examples 4, 5); format: in vivo, Sprague Dawley Rats
Experimental: Fifty male Sprague Dawley Rats, each weighing 300-400 g, are operated under anesthesia to create MCA occlusion as described in Example 1, and are divided into 5 groups of 10 animals each. […] One group is a control group with administration of the vehicle only at 6 hours. The animals are evaluated as described in Example 2. The experiment of Example 4 is also carried out using iroxanadine as the therapeutic agent.

[2] = system: embolic middle cerebral artery occlusion (MCAO) in rats; test: Functional recovery following embolic MCAO in rats (Example 13); format: in vivo, Wistar rats; conditions: for foot fault test, compared to EPO treatment group: 10 h treatment group
Excerpt: The purpose of this study was to evaluate the efficacy of arimoclomol in enhancing neurological recovery in a model of embolic middle cerebral artery occlusion (MCAO) in rats (Zhang R L et al. Brain Research 766:83-92, 1997). The embolic MCAO model emulates the damage caused by an embolic stroke which is generally the result of ischemia associated damage or diseases. The embolic MCAO model also closely models the types of damage caused by a stroke because the occlusion is not permanent. Moreover, the embolus often undergoes spontaneous clot lysis and reperfusion within 24-48 hours post-stroke, which is similar to a subset of human stroke. Damage from a stroke can be brought about in two ways. […] Second, the resulting pressure from the initial surge in blood volume once the occlusion is cleared can also result in further neurological damage and damage to the effected blood vessel. This embolic stroke model provides guidance for the neurological recovery resulting from each of these phenomena.
Sixty male Wistar rats between 8-12 weeks of age were operated on to isolate the external carotid artery (ECA) and the internal carotid artery (ICA). A single clot was introduced into the ECA lumen through a PE-50 catheter (0.3 mm outer diameter) attached to a 100 μL Hamilton syringe filled with 0.9% saline via a small puncture. A 16 mm length of the PE-50 catheter was advanced from the ECA into the lumen of the ICA. Subsequently, the clot was injected into the ICA with 2-3 μL of 0.9% saline. The catheter was withdrawn and the right ECA ligated.
The rats were then randomly divided into 6 groups of 10 animals each. To the control group, phosphate buffered saline (PBS) was administered, p.o., starting at six hours after embolic stroke for 28 consecutive days. To the second group, Erythropoitein (EPO) was administered, i.p., starting at 24 hours after embolic stroke for 7 consecutive days (41.7 μg/kg/d). To the third group, arimoclomol was administered daily p.o. (200 mg/kg/d), starting 6 hours after embolic stroke for 28 consecutive days. To the fourth group, arimoclomol was administered daily p.o. (200 mg/kg/d), starting 10 hours after embolic stroke for 28 consecutive days. To the fifth group, arimoclomol was administered p.o. (200 mg/kg/d), starting 24 hours after embolic stroke for 28 consecutive days. To the sixth group, arimoclomol was administered p.o. (200 mg/kg/d), starting 48 hours after embolic stroke for 28 consecutive days.
Animals were evaluated at 1, 3, 7, 14, 21, and 28 days after initiation of embolic stroke by a modified neurological severity score (mNSS) and adhesive-removal and foot fault tests. These tests are widely accepted as standard tests indicative of functional recovery after a stroke. (Chen et al., Ann Neurol 53: 743-751, 2003; Wang et al., Stroke 35: 1732-1737, 2004; Zhang et al, Circulation 3486-3494, 2005).
For the modified neurological severity score (mNSS), the severity of injury was graded on a scale of 0 to 18. This score was determined via the evaluation of a variety of motor tests, sensory tests, balance beam tests and reflex tests as illustrated in Table II below. To determine the score resulting from these tests, one point was awarded for the inability to perform any of the tests or for the lack of a tested reflex. Accordingly, the higher the score, the more severe the injury. (Chen et al., Ann Neurol 53: 743-751, 2003; Wang et al., Stroke 35: 1732-1737, 2004; Zhang et al, Circulation 3486-3494, 2005).
For the adhesive removal test, the rats are trained prior to embolic stroke to remove strips of packing tape (5 cm). The training period constitutes of 3 sessions. Each session consists of 6 bilateral stimulation trials conducted over 2 days wherein the 5 cm strips of packing tape were placed firmly around both wrists of the animal so that they covered the hairless part of the forepaw. […]

MCA occlusion in rats [3] = test: Functional recovery following MCA occlusion in rats, dose study (Examples 2, 3, 6); format: in vivo, Sprague Dawley Rats
Experimental: Fifty male Sprague Dawley Rats, each weighing 300-400 g, are operated under anesthesia to create MCA occlusion as described in Example 1, and are divided into 5 groups of 10 animals each. Each group is given arimocolomol, p.o., starting at one day after the occlusion at 25 mg/kg/d, 50 mg/kg/d, 100 mg/kg/d, or 200 mg/kg/d once daily for 35 days. One group is a control group with administration of the vehicle only.
Animals are evaluated pre-operation (day −1), then every 7 days after the operation (7, 14, 21, 28, and 35) by forelimb and hindlimb placing tests and body swing test, and given scores as described in Example 1.
On day 35 after MCAO, rats in the control group and the group with the highest dosage were sacrificed and their brains evaluated as in Example 1. The rats in other groups are sacrificed and the brains were removed and flash frozen for further analysis.

[4] = 6 h, 10 h, and 24 h treatment groups, on and after the 14-day time point

## [O-][n+]1cccc(/C(Cl)=N/OC[C@H](O)CN2CCCCC2)c1 [arimoclomol, N-[2-hydroxy-3-(1-piperidinyl)propoxy]-pyridine-1-oxide-3-carboximidoyl chloride]
MCA occlusion in rats [1]; 200 mg/kg/d p.o., all start times
  Body Swing Test, recovery compared to vehicle group: superior to the vehicle group
MCA occlusion in rats [1]; 200 mg/kg/d p.o., first dose 6, 12, 24 or 48 h after occlusion
  Hindlimb Placing Test, time course of recovery compared to vehicle group: superior to the vehicle group
MCA occlusion in rats [1]; 200 mg/kg/d p.o., first dose 6, 12, 24 or 48 h after occlusion, all groups
  Forelimb Placing Test, recovery compared to vehicle group: superior to the vehicle group
MCA occlusion in rats [1]; first administration 6, 12, 24, or 48 hours after occlusion
  Hindlimb Placing Test, difference among treated groups: no statistical difference
MCA occlusion in rats [1]; first administration 6 hours after occlusion
  Body Swing Test, performance after 21 days: continued to show improved performance
MCA occlusion in rats [1]; first administration 6 hours after stroke
  Forelimb Placing Test, recovery compared to other start times: superior
MCA occlusion in rats [1]; first administration 48 hours after occlusion
  Forelimb Placing Test, recovery: significant and sustained
MCA occlusion in rats [1]; time points up to and including 21 days after occlusion
  Body Swing Test, recovery of 48 h group compared to 6 h group: indistinguishable
[2]; 200 mg/kg/d p.o., start 6 h, 10 h, 24 h and 48 h after embolic stroke, after the 14 day time point
  adhesive-removal test, recovery compared to control group: significantly superior
[2]; [4]
  foot fault test, recovery compared to control groups: significantly superior
  mNSS test, recovery compared to control groups: significantly greater
[2]; 6 h and 10 h treatment groups, after 28 days of treatment
  infarct volume compared to control groups: significantly lower percentage of infarct volume
[2]; 21-day time point
  foot fault test, compared to EPO treatment group: significantly superior
[2]; 28-day time point
  foot fault test, compared to EPO treatment group: slightly superior
[2]; day 28, each time group (6, 10, 24, 48 h)
  adhesive-removal test, improvement percentage compared to control: greater than 25%
MCA occlusion in rats [3]; 25 mg/kg/day p.o. from one day after occlusion
  behavioral scores compared to vehicle control group: no significant difference
MCA occlusion in rats [3]; 50, 100 and 200 mg/kg/day p.o. from one day after occlusion, 35 days
  behavioral scores (forelimb placement, hindlimb placement, body swing tests): significant dose related improvement
MCA occlusion in rats [3]; day 35, highest dosage vs control
  changes in infarct volume: no changes
MCA occlusion in rats [3]; dose study, 35 days
  changes in body weight: no changes
MCA occlusion in rats [3]; p.o. once daily
  effective doses in the stroke recovery model: 50 to 200 mg/kg/day
  maximum effective dose in the study: 200 mg/kg/day
